The record followed here is patent US9944660B2, “Tricyclic benzoxaboroles as antibacterial agents” (Daiichi Sankyo Company, Limited, priority 2014, dated 2018).

Read-outs that look alike come from different tables or passages of the source. Some results are limits rather than exact numbers.

A word on the IC50: it is the concentration that gives 50% inhibition.

In one assay the target is T1, E. coli LRS (Escherichia coli, UniProt P07813).
T1 construct: made in house
The assay can be described thus: Leucine tRNA synthetase (LRS) enzyme inhibition assay. The assay is classed as biochemical. The method, then:
(§1) (Test Example 1) Leucine tRNA Synthetase (LRS) Enzyme Inhibition Assay [IC50]
(§2) E. coli and P. aeruginosa LRS enzymes were cloned, expressed and purified in-house. The IC50 values were determined by using following assay protocol.
(§3) Test compounds were diluted in milli-Q water. 5 μL (microliter) of test compound dilution was mixed with 20 μL of reaction mixture consisting of 100 millimolar Tris (Trizma base from Sigma), 120 millimolar potassium chloride (Sigma), […] magnesium chloride (Sigma), 50 millimolar dithiothreitol, 50 mg/mL E. coli tRNA (Roche), 150 micromolar leucine (Sigma), 0.5 microcurie of ^3H Leucine (Amersham) and 20 μL of appropriate dilution of LRS enzyme, incubate in shaker at about 30° C. for 20 minutes. The reaction was started by adding 5 μL of 40 millimolar ATP (Sigma) and incubated on shaker at the same temperature further for 20 minutes. The reaction was quenched with 150 μL ice cold trichloroacetic acid (10%). The content of each well was transferred to 96 well GF/C plates (from Pall), and washed with 150 μL of trichloroacetic acid (5%) using vacuum manifold (from Pall). Plates were dried and read using Microbeta Wallac liquid scintillation counters after adding 100 μL of scintillation cocktail (Perkin Elmer's OptiPhase ‘SuperMix’) to each well. IC50 was calculated with respect to enzyme control after subtracting background (No enzyme control) using Graph Pad Prism software.

For another assay, the target named is T2, P. aeruginosa LRS (Pseudomonas aeruginosa, UniProt Q9HX33).
T2 construct: made in house
T2 sequence (Q9HX33 whole entry): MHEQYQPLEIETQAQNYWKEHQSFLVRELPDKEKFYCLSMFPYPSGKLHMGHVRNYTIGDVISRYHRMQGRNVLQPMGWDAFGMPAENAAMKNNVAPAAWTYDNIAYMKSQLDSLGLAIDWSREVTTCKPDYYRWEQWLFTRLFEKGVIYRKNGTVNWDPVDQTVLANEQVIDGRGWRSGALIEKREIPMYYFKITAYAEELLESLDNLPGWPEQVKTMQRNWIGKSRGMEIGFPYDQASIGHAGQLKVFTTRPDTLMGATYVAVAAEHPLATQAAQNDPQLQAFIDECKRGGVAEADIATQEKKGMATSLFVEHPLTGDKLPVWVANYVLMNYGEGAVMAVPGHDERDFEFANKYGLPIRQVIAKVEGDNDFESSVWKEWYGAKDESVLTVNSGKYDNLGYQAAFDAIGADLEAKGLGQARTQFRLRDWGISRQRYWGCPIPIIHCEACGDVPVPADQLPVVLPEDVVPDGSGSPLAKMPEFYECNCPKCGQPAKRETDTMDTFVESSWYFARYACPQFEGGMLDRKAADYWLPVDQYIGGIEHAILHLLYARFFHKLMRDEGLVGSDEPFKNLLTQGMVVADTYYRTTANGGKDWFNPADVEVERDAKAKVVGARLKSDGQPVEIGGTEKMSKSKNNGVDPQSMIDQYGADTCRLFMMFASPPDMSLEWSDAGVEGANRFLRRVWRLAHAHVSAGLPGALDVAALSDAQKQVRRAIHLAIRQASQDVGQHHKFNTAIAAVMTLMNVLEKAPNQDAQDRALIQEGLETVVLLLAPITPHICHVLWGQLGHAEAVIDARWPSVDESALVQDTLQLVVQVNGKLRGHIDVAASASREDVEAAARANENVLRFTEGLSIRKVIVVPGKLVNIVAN
The assay is described as above. The assay is classed as biochemical. The settings on record: 3H leucine incorporation. The method, then: as §1, §2, §3

The test system of assay [1] is E. coli ATCC 25922. The assay can be described thus: Bacterial susceptibility testing (MIC, CLSI microdilution). The assay is classed as cell-based. The settings on record: Escherichia coli, ATCC25922. The method, then: (§4) (Test Example 2) Method of Testing Susceptibility of Bacterial [MICs]
(§5) Minimum inhibitory concentration (MIC) were determined as recommended by the Clinical and Laboratory Standards Institute (CLSI) in 2010 (M100-520), in 2011 (M100-521), 2012 (M100-522) and in 2013 (M100-523) with minor modifications.
(§6) In short, bacterial cultures were streaked on Muller Hinton Agar plates and incubated at 35±2° C. for about 18 to 20 hours. Following day colony suspension was prepared in saline and adjusted to 0.5 McFarland using Densitometer. This culture was further diluted 100 fold in Muller Hinton Broth or M9 minimal media or pooled human urine and used for MIC determination. The test compounds were prepared in dimthylesulfoxide (DMSO) at concentration of 1 mg/mL, and diluted to 32 μg/mL in respective media. Further two fold serial dilution were prepared in 96 well microtiter plates. 50 μL of diluted cultures were added to all wells and incubated at 35±2° C. for about 16 to 20 hours.

For another assay, the system named is K. pneumoniae ATCC 13883. The assay is described as above. The assay is classed as cell-based. The settings on record: Klebsiella pneumoniae, ATCC13883. On the procedure: as §4, §5, §6
Another assay has as its system P. aeruginosa. Described as above. The assay is classed as cell-based. As to conditions: Pseudomonas aeruginosa, strain not stated, read-out: MIC against P. aeruginosa. On the procedure:
as §4, §5, §6

In assay [2] the test system is E. coli ATCC 25922. The assay can be described thus: MICs in Muller Hinton Broth and pooled human urine. The assay is classed as cell-based. The settings on record: Escherichia coli, ATCC25922. On the procedure: as §6
(Test Example 4) MICs in Human Urine Against E. coli and K. pneumonia
Many antibacterial compounds like fluroquinolones loose activity in human urine at acidic pH (acidic urine promotes rigorous bacterial growth). MICs were performed using CLSI guidelines (2011) against E. coli 25922 in Muller Hinton Broth (MHB) and pooled human urine.

The subject of assay [3] is P. aeruginosa PAO1 (parent, MexAB del, MexAB over expression). The assay can be described thus: MICs against Pseudomonas efflux pump mutants. The assay is classed as cell-based. On the procedure: as §6
(Test Example 5) MICs Against Pseudomonas Efflux Pump Mutants
Multidrug-resistant (MDR) P. aeruginosa isolated from nosocomial infections in intensive care units (ICUs) are often related to altered regulation of the specific efflux pumps and porins in P. aeruginosa strains. Tested compounds that show similar activity against efflux pump overproducers and lab strains can be predictive of activity in nosocomial patients infected with MDR strains. To identify such compounds we have determined MICs against P. aeruginosa PAO1 against Efflux deleted and overproducer strains.

The next assay concerns P. aeruginosa PAO1. Put plainly: In vivo efficacy in urinary tract infection (UTI) ascending model. As to conditions: 60 mg/kg body weight twice daily for 3 days, 4th day of infection. Set-up: species or system Mouse. The method, then:
(Test Example 3a) In Vivo Efficacy in Urinary Tract Infection (UTI) Model Mouse P. aeruginosa UTI ascending model was used. All animals were infected with P. aeruginosa PAO1 by intra-urethral route. Randomization was done 18 hours post infection before starting treatment. Therapy was initiated 18 hours post infection. Animals were treated with 30 mg/kg and 60 mg/kg body weight of test compounds twice daily for 3 days. Animals were sacrificed and cfu loads in kidney and bladder were detected by serial dilution platting on drug free TSA plates on day 4.

The subject of a further assay is P. aeruginosa PAO-1. Put plainly: In vivo efficacy in P. aeruginosa PAO1 murine lung infection model. As to conditions: subcutaneous 75 mg/kg twice daily. The method, then: (Test Example 3c) In Vivo Efficacy in P. aeruginosa PAO1 Murine Lung Infection Model Overnight grown culture of P. aeruginosa PAO-1 on TSA agar was inoculated in Brain heart infusion broth (BHI, DIFCO) and grown in a shaker incubator with shaking at 110 rpm at 35±2° C. overnight. The culture was subcultured in 50 mL of BHI and incubated again at 110 rpm at 35±2° C. on a shaker incubator till the optical density of the culture reaches 0.5-0.7 units. For infection, animals were weighed, randomized and anesthetized by giving isofluorane. Under anesthesia the animals were infected with 50 μL of the inoculum prepared as above by intranasal route. The test compounds were administered at 75 mg/kg body weight by subcutaneous route after 1 hour and 6 hours post infection. Animals were euthanized, lungs were removed aseptically and homogenized in PBS (3 mL) and serial dilutions plated on TSA plates 24 hours post infection.

[4] abbreviates: Muller Hinton Broth, read-out: E. coli ATCC 25922 MIC (μg/mL) MHB.
[5] abbreviates: pooled human urine pH 5.5, read-out: E. coli ATCC 25922 MIC (μg/mL) Urine pH 5.5.
The mark [6] stands for this setting: PAO1, read-out: MIC (μg/mL) P. aeruginosa PAO1 MexAB del.
The mark [7] stands for this setting: PAO1, read-out: MIC (μg/mL) P. aeruginosa PAO1 MexAB over expression.
The mark [8] stands for this setting: PAO1, read-out: MIC (μg/mL) P. aeruginosa PAO1 Parent.

T1 sequence (P07813 whole entry): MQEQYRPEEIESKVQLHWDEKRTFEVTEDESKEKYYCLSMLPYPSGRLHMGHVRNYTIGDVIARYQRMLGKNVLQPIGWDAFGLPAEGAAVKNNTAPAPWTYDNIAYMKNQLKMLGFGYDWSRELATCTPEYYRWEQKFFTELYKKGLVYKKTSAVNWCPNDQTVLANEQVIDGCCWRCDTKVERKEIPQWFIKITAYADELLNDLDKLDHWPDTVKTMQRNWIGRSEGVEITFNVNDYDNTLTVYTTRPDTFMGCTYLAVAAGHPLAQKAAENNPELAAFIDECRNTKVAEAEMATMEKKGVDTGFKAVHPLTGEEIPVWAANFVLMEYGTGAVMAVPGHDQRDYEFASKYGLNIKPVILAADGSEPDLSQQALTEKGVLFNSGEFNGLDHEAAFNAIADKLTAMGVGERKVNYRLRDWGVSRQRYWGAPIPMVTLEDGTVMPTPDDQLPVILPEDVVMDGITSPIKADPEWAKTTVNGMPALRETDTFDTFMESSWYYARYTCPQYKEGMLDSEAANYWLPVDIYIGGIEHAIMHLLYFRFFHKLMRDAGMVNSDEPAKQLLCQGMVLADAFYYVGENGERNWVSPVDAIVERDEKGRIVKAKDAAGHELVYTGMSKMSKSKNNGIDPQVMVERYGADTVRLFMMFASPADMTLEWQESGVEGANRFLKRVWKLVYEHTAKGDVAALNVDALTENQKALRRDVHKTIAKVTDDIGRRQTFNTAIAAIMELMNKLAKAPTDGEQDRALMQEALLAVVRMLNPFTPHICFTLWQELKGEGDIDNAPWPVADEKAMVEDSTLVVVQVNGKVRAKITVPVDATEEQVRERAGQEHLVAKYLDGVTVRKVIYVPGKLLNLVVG

With `Cl.NCC1OB(O)c2c1ccc1c2OCO1` (stereo not shown) [Compound 9, 3-(aminomethyl)[1,3]dioxolo[4,5-g][2,1]benzoxaborol-1(3H)-ol; hydrochloride], the IC50 came to 1700 nM on E. coli LRS and 2.7 µM at P. aeruginosa LRS. Besides, the MIC in the assay with E. coli ATCC 25922 [1] came out at 2 µg/mL; against K. pneumoniae ATCC 13883 it was 2 µg/mL; with P. aeruginosa, 2 µg/mL; in the assay on E. coli ATCC 25922 [2] (setting [4]), 8 µg/mL; in the assay with E. coli ATCC 25922 [2] (setting [5]), 8 µg/mL; in assay [3] (setting [6]), 2 µg/mL. Further, the MIC came out at 4 µg/mL in assay [3] (setting [7]) and 2 µg/mL in assay [3] (setting [8]).
Regarding `Cl.NCC1OB(O)c2c1ccc1c2CCC1` (stereo not shown) [Compound 3, 3-(aminomethyl)-3,6,7,8-tetrahydro-1H-indeno[4,5-c][1,2]oxaborol-1-ol hydrochloride], the IC50 against E. coli LRS was 2500 nM; against P. aeruginosa LRS it was 2.2 µM. The MIC against E. coli ATCC 25922 [1] and against K. pneumoniae ATCC 13883 was 1 µg/mL in each case.
Turning to `Cl.NCC1OB(O)c2cc3c(cc21)CCO3` (stereo not shown) [Compound 11, 3-(aminomethyl)-5,6-dihydrofuro[3,2-f][2,1]benzoxaborol-1(3H)-ol hydrochloride], the half-maximal inhibitory concentration (IC50) against E. coli LRS was 2900 nM; against P. aeruginosa LRS, more than 10 µM. The MIC against E. coli ATCC 25922 [1] and with K. pneumoniae ATCC 13883 was 4 µg/mL each time.
As for `Cl.NCC1OB(O)c2c1ccc1c2CCCC1` (stereo not shown) [Compound 4, 3-(Aminomethyl)-6,7,8,9-tetrahydronaphtho[1,2-c][1,2]oxaborol-1(3H)-ol hydrochloride], the IC50 on E. coli LRS is 4500 nM; at P. aeruginosa LRS, 9.5 µM. The figures for the MIC with E. coli ATCC 25922 [1] and in the assay with K. pneumoniae ATCC 13883 were 8 µg/mL and 16 µg/mL, respectively.
`Cl.NC[C@H]1OB(O)c2c1ccc1c2OCO1` (single isomer, unassigned) [Compound 10]: the MIC was determined as 2 µg/mL against E. coli ATCC 25922 [1]; 0.5 µg/mL in the assay on K. pneumoniae ATCC 13883; 1 µg/mL in the assay on P. aeruginosa; 2 µg/mL with E. coli ATCC 25922 [2] (setting [4]); 4 µg/mL in the assay with E. coli ATCC 25922 [2] (setting [5]); 1 µg/mL in assay [3] (setting [6]). For the same molecule, the MIC in assay [3] (setting [7]) and in assay [3] (setting [8]) was 1 µg/mL throughout. The “log reduction from the untreated control in bladder counts” value in the assay with P. aeruginosa PAO1 (bladder) was 3.83 log. The “log reduction from the untreated control in kidney counts” value with P. aeruginosa PAO1 (kidney) turned out to be 4.18 log. Also, the “log reduction in cfu from 24 hours untreated control” value in the assay on P. aeruginosa PAO-1 was 3.53 log. Further, in the assay with P. aeruginosa PAO-1, the “log reduction in cfu's from baseline” value is recorded as 2.07 log.
Take `Cl.NCC1OB(O)c2cc3c(cc21)OCCO3` (stereo not shown) [Compound 2, 3-(aminomethyl)-6,7-dihydro[1,2]oxaborolo[3,4-g][1,4]benzodioxin-1(3H)-ol hydrochloride]: the IC50 against E. coli LRS is 3350 nM; on P. aeruginosa LRS, more than 10 µM. For the same molecule, the MIC with E. coli ATCC 25922 [1] came out at 4 µg/mL; in the assay on K. pneumoniae ATCC 13883, 8 µg/mL.
Turning to `Cl.NCC1OB(O)c2c1ccc1c2OCCO1` (stereo not shown) [Compound 8, 3-(aminomethyl)-7,8-dihydro[1,2]oxaborolo[3,4-f][1,4]benzodioxin-1(3H)-ol hydrochloride], the values for the IC50 against E. coli LRS and against P. aeruginosa LRS were 2100 nM and 3.2 µM, respectively. For the same molecule, the MIC came to 4 µg/mL in the assay on E. coli ATCC 25922 [1]; 4 µg/mL in the assay with K. pneumoniae ATCC 13883; 4 µg/mL in the assay on P. aeruginosa; 8 µg/mL in the assay on E. coli ATCC 25922 [2] (setting [4]); 16 µg/mL in the assay on E. coli ATCC 25922 [2] (setting [5]); 4 µg/mL in [3] (setting [6]). Further, the results for the MIC in assay [3] (setting [7]) and in assay [3] (setting [8]) were 4 µg/mL and 2 µg/mL, respectively.
In the case of `Cl.NC[C@H]1OB(O)c2ccc3c(c21)OCO3` (single isomer, unassigned) [Compound 6, hydrochloride], the IC50 at E. coli LRS was less than 120 nM; at P. aeruginosa LRS, less than 0.12 µM.
On to `Cl.NCC1OB(O)c2ccc3c(c21)OCCO3` (stereo not shown) [Compound 7, 9-(aminomethyl)-2,3-dihydro[1,2]oxaborolo[4,3-f][1,4]benzodioxin-7(9H)-ol hydrochloride], for which the IC50 was found to be 800 nM against E. coli LRS and 0.6 µM against P. aeruginosa LRS. In addition, the MIC with E. coli ATCC 25922 [1] amounted to 8 µg/mL; against K. pneumoniae ATCC 13883, 16 µg/mL.
On the same counts, the results for `Cl.NCC1OB(O)c2cc3c(cc21)OCO3` (stereo not shown) [Compound 1, 3-(aminomethyl)[1,3]dioxolo[4,5-f][2,1]benzoxaborol-1(3H)-ol hydrochloride] are 1400 nM, more than 10 µM, 4 µg/mL and 4 µg/mL.
Consider `Cl.NC[C@H]1OB(O)c2c1ccc1c2OCO1` (single isomer, unassigned) [Compound 10, hydrochloride], for which the figures for the concentration for half-maximal inhibition (IC50) at E. coli LRS and against P. aeruginosa LRS were 380 nM and 0.62 µM, respectively.
As for `Cl.NCC1OB(O)c2cc3c(cc21)OCC3` (stereo not shown) [Compound 12, 3-(aminomethyl)-6,7-dihydrofuro[2,3-f][2,1]benzoxaborol-1(3H)-ol hydrochloride], the values for the IC50 against E. coli LRS and against P. aeruginosa LRS were 2800 nM and more than 10 µM, respectively. Also, the MIC in the assay on E. coli ATCC 25922 [1] amounted to 8 µg/mL; in the assay on K. pneumoniae ATCC 13883, 16 µg/mL.
